Assay results taken from patent US20240025906A1 (NEURON23, INC., priority 2022, published 2024).
pIC50, pKd: −log10 of the molar value. Counter-ions that a name gives are not always drawn. Like-named read-outs stand apart in the source and are kept apart here.

What was measured:
[1] = target: T1, TYK2 JH2 (Homo sapiens, UniProt P29597); assay: TYK2 JH2 binding assay (KINOMEscan KdELECT competitive binding); conditions: TYK2 JH2 domain
T1 construct: purchased DiscoverX (KINOMEscan KdELECT service); host or cells: E. coli BL21-derived (T7 phage display) or HEK-293
Summary of the method: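 Kd values come from qPCR measurement of kinase retained on an immobilized-ligand resin after 1 h room-temperature competition with compound in an 11-point, 3-fold series.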

[2] = test system: JAK1/TYK2 pSTAT5 (Tyr694/699) in THP-1 cell line; assay: IFNa-stimulated JAK1/TYK2 pSTAT5 (Tyr694/699) inhibition cellular assay, AlphaLISA; format: cell-based; conditions: Homo sapiens, THP-1 cells, AlphaLISA (Assay B)
Summary of the method: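 THP-1 cells (2e4/well) in HBSS preincubated 1 h at 37° C. with compound (final 10000–0.04 nM, 8 points, 6-fold), then stimulated with IFNa (100 ng/mL stock) for 30 min before lysis. pSTAT5 (Tyr694/699) read by AlphaLISA at 615 nm; IC50 from four-parameter logistic fit with bottom fixed at 0 and Hill slope at −1.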

[3] = DiscoverX KINOMEscan KdELECT (Assay A), read-out: Biochemical TYK2_DiscoverX_JH2_BND_Kd
[4] = IFNa-stimulated, read-out: Cellular_THP1_IFNa-pSTATS_TYK2
[5] = KINOMEscan KdELECT (Assay A), read-out: Biochemical TYK2_DiscoverX_JH2_BND_Kd
[6] = KINOMEscan KdELECT (Assay A), read-out: Biochemical TYK2_JH2_Kd
[7] = IFNa-stimulated, read-out: Cellular THP1_IFNa-pSTATS_IC50
[8] = IFNa-stimulated pSTAT5 (Tyr694/699), read-out: Cellular_THP1_IFNa-pSTATS_TYK2

T1 sequence (P29597 589-875 limits assumed): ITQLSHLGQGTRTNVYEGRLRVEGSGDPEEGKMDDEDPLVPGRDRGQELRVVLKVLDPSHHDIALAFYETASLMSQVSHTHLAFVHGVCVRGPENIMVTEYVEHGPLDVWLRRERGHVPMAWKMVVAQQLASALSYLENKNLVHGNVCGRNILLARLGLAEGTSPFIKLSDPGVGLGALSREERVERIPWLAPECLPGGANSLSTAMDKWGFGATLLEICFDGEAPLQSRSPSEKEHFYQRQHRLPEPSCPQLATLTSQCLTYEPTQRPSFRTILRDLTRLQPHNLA

| pKd [1, 3] | pIC50 [2, 4] | pKd [1, 5] | Compound | further results |
| --- | --- | --- | --- | --- |
| ≥ 7.00 | ≥ 6.30 | – | CNc1ncc(-c2nc3cc(OCC4COC4)ccc3o2)c2cc(NC(=O)C3CC3)ncc12 [Example 336, N-(8-(methylamino)-5-(5-(oxetan-3-ylmethoxy)benzo[d]oxazol-2-yl)-2,7-naphthyridin-3-yl)cyclopropanecarboxamide] | – |
| ≥ 7.00 | ≥ 6.30 | – | CNc1ncc(-c2nc3cc(C4CCCO4)ccc3o2)c2cc(NC(=O)C3CC3)ncc12 (stereo not shown) [Example 343, N-(8-(methylamino)-5-(5-(tetrahydrofuran-2-yl)benzo[d]oxazol-2-yl)-2,7-naphthyridin-3-yl)cyclopropanecarboxamide] | – |
| – | < 6.30 | ≥ 7.00 | CNc1ncc(C23CC(C2)C3)c2cc(NC(=O)C3CC3)ncc12 [Example 844, N-(5-(bicyclo[1.1.1]pentan-1-yl)-8-(methylamino)-2,7-naphthyridin-3-yl)cyclopropanecarboxamide] | – |
| – | ≥ 6.30 | ≥ 7.00 | CNc1ncc(-c2cn3cc(N4CCOCC4)ccc3n2)c2cc(NC(=O)C3CC3)ncc12 [Example 880, N-(8-(methylamino)-5-(6-morpholinoimidazo[1,2-a]pyridin-2-yl)-2,7-naphthyridin-3-yl)cyclopropanecarboxamide] | – |
| ≥ 7.00 | ≥ 6.30 | – | CNc1ncc(-c2nc3ccc(N4CCO[C@H](C(F)(F)F)C4)cn3n2)c2cc(NC(=O)C3CC3)ncc12 [Example 481, (S)-N-(8-(methylamino)-5-(6-(2-(trifluoromethyl)morpholino)-[1,2,4]triazolo[1,5-a]pyridin-2-yl)-2,7-naphthyridin-3-yl)cyclopropanecarboxamide] | – |
| – | ≥ 6.30 | ≥ 7.00 | CNc1ncc(C#Cc2ccc(N3CCOCC3)cc2C)c2cc(NC(=O)C3CC3)ncc12 [Example 639, N-(5-((2-methyl-4-morpholinophenyl)ethynyl)-8-(methylamino)-2,7-naphthyridin-3-yl)cyclopropanecarboxamide] | – |
| ≥ 7.00 | ≥ 6.30 | – | CNc1ncc(-c2nc3cc(OC4CCOC4)ccc3o2)c2cc(NC(=O)C3CC3)ncc12 (stereo not shown) [Example 229, N-(8-(methylamino)-5-(5-((tetrahydrofuran-3-yl)oxy)benzo[d]oxazol-2-yl)-2,7-naphthyridin-3-yl)cyclopropanecarboxamide] | – |
| – | ≥ 6.30 | ≥ 7.00 | CNc1ncc(C#Cc2cc(C)c(OC)cn2)c2cc(NC(=O)C3CC3)ncc12 [Example 663, N-(5-((5-methoxy-4-methylpyridin-2-yl)ethynyl)-8-(methylamino)-2,7-naphthyridin-3-yl)cyclopropanecarboxamide] | – |
| – | ≥ 6.30 | ≥ 7.00 | CNc1ncc(C#Cc2ccc(OC)cc2)c2cc(NC(=O)[C@@H]3C[C@@H]3F)ncc12 [Example 752, (1S,2S)-2-fluoro-N-(5-((4-methoxyphenyl)ethynyl)-8-(methylamino)-2,7-naphthyridin-3-yl)cyclopropane-1-carboxamide] | – |
| – | – | – | CNc1ncc(-c2ccc(Cl)cc2)c2cc(NC(=O)C3CC3)ncc12 [Example 16, N-(5-(4-chlorophenyl)-8-(methylamino)-2,7-naphthyridin-3-yl)cyclopropanecarboxamide] | pKd [1, 6]: ≥ 7.00; pIC50 [2, 7]: < 6.30 |
| – | – | – | CNc1ncc(-c2ccc(OC)cc2)c2cc(NC(=O)C3CC3)ncc12 [Example 13, N-(5-(4-methoxyphenyl)-8-(methylamino)-2,7-naphthyridin-3-yl)cyclopropanecarboxamide formate] | pKd [1, 6]: ≥ 7.00; pIC50 [2, 7]: < 6.30 |
| ≥ 7.00 | ≥ 6.30 | – | [2H]C([2H])([2H])Nc1ncc(-c2nc3cc(OCC4CC4)ccc3o2)c2cc(NC(=O)[C@H]3C[C@H]3C)ncc12 [Example 456, (1S,2R)—N-(5-(5-(cyclopropylmethoxy)benzo[d]oxazol-2-yl)-8-((methyl-d3)amino)-2,7-naphthyridin-3-yl)-2-methylcyclopropane-1-carboxamide] | – |
| – | ≥ 6.30 | ≥ 7.00 | CNc1ncc(C#Cc2ccc3ncn(CCCOC)c3c2)c2cc(NC(=O)C3CC3)ncc12 [Example 693, N-(5-((1-(3-methoxypropyl)-1H-benzo[d]imidazol-6-yl)ethynyl)-8-(methylamino)-2,7-naphthyridin-3-yl)cyclopropanecarboxamide] | – |
| – | – | – | CNc1ncc(-c2ccc(C(=O)N(C)C)cc2)c2cc(NC(=O)C3CC3)ncc12 [Example 170, 4-(6-(cyclopropanecarboxamido)-1-(methylamino)-2,7-naphthyridin-4-yl)-N,N-dimethylbenzamide] | pKd [1, 6]: ≥ 7.00; pIC50 [2, 7]: ≥ 6.30 |
| – | – | ≥ 7.00 | CNc1ncc(-c2nc3ccc(N4CCOCC4)cn3n2)c2cc(Nc3cc(C(C)(C)O)ccn3)ncc12 [Example 1088, 2-[2-[[8-(methylamino)-5-(6-morpholino-[1,2,4]triazolo[1,5-a]pyridin-2-yl)-2,7-naphthyridin-3-yl]amino]-4-pyridyl]propan-2-ol] | pIC50 [2, 8]: ≥ 6.30 |
| – | – | ≥ 7.00 | CNc1ncc(-c2nc3ccc(N4CCOCC4)cc3s2)c2cc(NC(=O)C3CC3)ncc12 [Example 1094, N-(8-(methylamino)-5-(6-morpholinobenzo[d]thiazol-2-yl)-2,7-naphthyridin-3-yl)cyclopropanecarboxamide] | pIC50 [2, 8]: ≥ 6.30 |
| ≥ 7.00 | ≥ 6.30 | – | CNc1ncc(-c2nc3cc(OCC#N)ccc3o2)c2cc(NC(=O)C3CC3)ncc12 [Example 338, N-(5-(5-(cyanomethoxy)benzo[d]oxazol-2-yl)-8-(methylamino)-2,7-naphthyridin-3-yl)cyclopropanecarboxamide] | – |
| ≥ 7.00 | < 6.30 | – | O=C(Nc1cc2c(-c3nc4ccccn4n3)cnc(NC3CC3)c2cn1)C1CC1 [Example 519, N-(5-([1,2,4]triazolo[1,5-a]pyridin-2-yl)-8-(cyclopropylamino)-2,7-naphthyridin-3-yl)cyclopropanecarboxamide] | – |
| – | ≥ 6.30 | ≥ 7.00 | CNc1ncc(C#Cc2ccc(-n3nccn3)cc2)c2cc(NC(=O)C3CC3)ncc12 [Example 772, N-(5-((4-(2H-1,2,3-triazol-2-yl)phenyl)ethynyl)-8-(methylamino)-2,7-naphthyridin-3-yl)cyclopropanecarboxamide] | – |
| – | ≥ 6.30 | ≥ 7.00 | CNc1ncc(/C=C/c2ccc(N3CCOCC3)cc2)c2cc(NC(=O)C3CC3)ncc12 [Example 792, (E)-N-(8-(methylamino)-5-(4-morpholinostyryl)-2,7-naphthyridin-3-yl)cyclopropanecarboxamide] | – |
| ≥ 7.00 | ≥ 6.30 | – | [2H]C([2H])([2H])Nc1ncc(-c2nc3ccccn3n2)c2cc(NC(=O)C3CC3F)ncc12 (racemic) [Example 564, N-(5-([1,2,4]triazolo[1,5-a]pyridin-2-yl)-8-((methyl-d3)amino)-2,7-naphthyridin-3-yl)-2-fluorocyclopropane-1-carboxamide] | – |
| ≥ 7.00 | ≥ 6.30 | – | O=C(Nc1cc2c(-c3nc4ccc(N5CCOCC5)cn4n3)cnc(NC3CC3)c2cn1)C1CC1 [Example 518, N-(8-(cyclopropylamino)-5-(6-morpholino-[1,2,4]triazolo[1,5-a]pyridin-2-yl)-2,7-naphthyridin-3-yl)cyclopropanecarboxamide] | – |
| – | – | – | CNc1ncc(-c2ccccc2)c2cc(NC(C)C)ncc12 [Example 162, N^6-isopropyl-N^1-methyl-4-phenyl-2,7-naphthyridine-1,6-diamine] | pKd [1, 6]: 6.00 to 7.00; pIC50 [2, 7]: < 6.30 |
